The species entered for this assay is Rattus norvegicus. Put plainly: Evaluated for intrinsic GH secretory potency as half maximal release of GH in the rat pituitary cell assay. It is filed as functional. The settings on record: Pituitary gland cell.

The compound `CC1(C)C2CCC1(CS(=O)(=O)N1CCC3(CCc4ccccc43)CC1)C(NC(=O)C1CCNCC1)C2` (stereo not given) returned an EC50 of 9.5 µM. This lies in the single-digit micromolar range.

`CC1(C)C2CCC1(CS(=O)(=O)N1CCC3(CCc4ccccc43)CC1)C(NC(=O)C1CCCN(CCO)C1)C2` (stereo not given) gave an EC50 of 0.3 µM. Compared with the last compound, the EC50 is about 32-fold lower.

Regarding `Cc1ccccc1N1CCN(S(=O)(=O)CC23CCC(CC2NC(=O)CC(C)(C)N)C3(C)C)CC1` (stereo not given), the EC50 is above 10 µM.

Turning to `Cc1ccccc1N1CCN(S(=O)(=O)CC23CCC(CC2NC(=O)[C@@H]2CCCNC2)C3(C)C)CC1` (stereo not given in full), the EC50 amounted to 0.135 µM.

Regarding `CC1(C)C2CCC1(CS(=O)(=O)N1CCC3(CCc4ccccc43)CC1)C(NC(=O)[C@H]1CCCNC1)C2` (stereo not given in full), the EC50 was above 1 µM.

`C[C@@H](O)CN1CCC[C@@H](C(=O)NC2CC3CCC2(CS(=O)(=O)N2CCC4(CCc5ccccc54)CC2)C3(C)C)C1` (stereo not given in full) registered an EC50 of 0.09 µM.

As to `Cc1ccccc1N1CCN(S(=O)(=O)CC23CCC(CC2NC(=O)[C@H]2CCCNC2)C3(C)C)CC1` (stereo not given in full), the EC50 is above 5 µM.

As for `CC1(C)C2CCC1(CS(=O)(=O)N1CCC3(CCc4ccccc43)CC1)C(NC(=O)[C@@H]1CCCN(C[C@H](O)CO)C1)C2` (stereo not given in full), it took 0.8 µM to reach a half-maximal effect (EC50).

As for `CC(C)(N)CC(=O)NC1CC2CCC1(CS(=O)(=O)N1CCC3(CCc4ccccc43)CC1)C2(C)C` (stereo not given), the EC50 is above 10 µM.

Consider `CC1(C)C2CCC1(CS(=O)(=O)N1CCC3(CCc4ccccc43)CC1)C(NC(=O)C1CCCCN1)C2` (stereo not given), for which the EC50 is above 10 µM.

Consider `CC1(C)C2CCC1(CS(=O)(=O)N1CCC3(CCc4ccccc43)CC1)C(NC(=O)C1CN3CCC1CC3)C2` (stereo not given), for which the EC50 is above 10 µM.

The compound `CC(C)(N)C(=O)NC1CC2CCC1(CS(=O)(=O)N1CCC3(CCc4ccccc43)CC1)C2(C)C` (stereo not given) showed an EC50 above 10 µM.

In the case of `CC(C)(C)OC(=O)N1CCCC(C(=O)NC2CC3CCC2(CS(=O)(=O)N2CCC4(CCc5ccccc54)CC2)C3(C)C)C1` (stereo not given), the EC50 is above 25 µM.

`CC1(C)C2CCC1(CS(=O)(=O)N1CCC3(CCc4ccccc43)CC1)C(NC(=O)[C@@H]1CCCNC1)C2` (stereo partly drawn) [L-162425] registered an EC50 of 0.14 µM.

The compound `CC1(C)C2CCC1(CS(=O)(=O)N1CCC3(CCc4ccccc43)CC1)C(NC(=O)C1CCCNC1)C2` [L-368112] displayed an EC50 of 0.3 µM.

These data come from ChEMBL document CHEMBL1129712, “Synthesis and biological activities of camphor-based non-peptide growth hormone secretagogues” (Bioorg Med Chem Lett, 1996).
